Measured values reported in article PMC2095803 (Nucleic Acids Research, 2007).

Key:
Assay in all cases: PEP
[1] = target: T1, Bst DNA polymerase (Geobacillus stearothermophilus, UniProt P52026); type: biochemical, Bacillus stearothermophilus
T1 sequence (P52026 289-876 limits assumed): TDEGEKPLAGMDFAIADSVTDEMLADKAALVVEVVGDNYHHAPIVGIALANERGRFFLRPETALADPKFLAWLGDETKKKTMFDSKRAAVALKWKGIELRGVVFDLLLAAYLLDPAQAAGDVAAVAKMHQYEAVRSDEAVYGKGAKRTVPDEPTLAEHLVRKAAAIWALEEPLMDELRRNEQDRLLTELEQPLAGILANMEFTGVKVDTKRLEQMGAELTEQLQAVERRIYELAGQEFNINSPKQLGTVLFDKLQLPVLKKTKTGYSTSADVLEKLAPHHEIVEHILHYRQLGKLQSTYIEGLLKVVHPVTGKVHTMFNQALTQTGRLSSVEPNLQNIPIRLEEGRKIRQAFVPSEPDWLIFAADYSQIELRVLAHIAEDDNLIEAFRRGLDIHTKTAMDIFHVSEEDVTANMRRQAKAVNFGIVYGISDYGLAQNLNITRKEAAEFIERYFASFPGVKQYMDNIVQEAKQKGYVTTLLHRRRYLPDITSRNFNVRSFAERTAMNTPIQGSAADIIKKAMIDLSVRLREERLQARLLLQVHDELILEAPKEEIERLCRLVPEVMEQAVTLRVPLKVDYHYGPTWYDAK

[2] = target: Klenow(exo−) DNA polymerase (Escherichia coli, UniProt P00582, D355A/E357A); type: biochemical
[3] = target: Taq DNA polymerase (Thermus aquaticus, UniProt P19821); type: biochemical, Thermus aquaticus YT-1
Chain of Taq DNA polymerase (P19821 whole entry): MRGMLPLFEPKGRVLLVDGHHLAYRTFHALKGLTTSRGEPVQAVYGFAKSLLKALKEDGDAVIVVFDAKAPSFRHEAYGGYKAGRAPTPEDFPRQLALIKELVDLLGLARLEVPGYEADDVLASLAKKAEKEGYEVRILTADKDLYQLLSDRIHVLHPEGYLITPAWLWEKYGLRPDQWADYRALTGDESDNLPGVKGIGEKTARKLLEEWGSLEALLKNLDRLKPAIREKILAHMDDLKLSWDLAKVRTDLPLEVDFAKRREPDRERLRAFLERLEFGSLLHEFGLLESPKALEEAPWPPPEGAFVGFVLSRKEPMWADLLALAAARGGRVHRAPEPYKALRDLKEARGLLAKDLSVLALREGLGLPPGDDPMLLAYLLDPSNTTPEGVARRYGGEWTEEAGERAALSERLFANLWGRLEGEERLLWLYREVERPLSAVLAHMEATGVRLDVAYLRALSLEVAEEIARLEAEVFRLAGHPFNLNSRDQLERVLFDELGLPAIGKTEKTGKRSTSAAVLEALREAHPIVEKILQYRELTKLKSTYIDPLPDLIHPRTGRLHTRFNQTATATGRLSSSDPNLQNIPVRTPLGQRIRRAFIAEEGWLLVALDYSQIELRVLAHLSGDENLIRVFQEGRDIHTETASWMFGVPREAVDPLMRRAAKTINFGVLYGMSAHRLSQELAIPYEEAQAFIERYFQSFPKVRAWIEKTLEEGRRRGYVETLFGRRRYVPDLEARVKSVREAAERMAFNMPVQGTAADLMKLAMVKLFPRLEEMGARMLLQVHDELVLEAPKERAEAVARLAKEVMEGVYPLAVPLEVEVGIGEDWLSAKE

[4] = target: T2, Therminator DNA polymerase (Thermococcus sp., UniProt Q56366, A485L/D141A/E143A); type: biochemical, Thermococcus species 9ºN-7
T2 sequence (Q56366 1-775 D141A/E143A/A485L): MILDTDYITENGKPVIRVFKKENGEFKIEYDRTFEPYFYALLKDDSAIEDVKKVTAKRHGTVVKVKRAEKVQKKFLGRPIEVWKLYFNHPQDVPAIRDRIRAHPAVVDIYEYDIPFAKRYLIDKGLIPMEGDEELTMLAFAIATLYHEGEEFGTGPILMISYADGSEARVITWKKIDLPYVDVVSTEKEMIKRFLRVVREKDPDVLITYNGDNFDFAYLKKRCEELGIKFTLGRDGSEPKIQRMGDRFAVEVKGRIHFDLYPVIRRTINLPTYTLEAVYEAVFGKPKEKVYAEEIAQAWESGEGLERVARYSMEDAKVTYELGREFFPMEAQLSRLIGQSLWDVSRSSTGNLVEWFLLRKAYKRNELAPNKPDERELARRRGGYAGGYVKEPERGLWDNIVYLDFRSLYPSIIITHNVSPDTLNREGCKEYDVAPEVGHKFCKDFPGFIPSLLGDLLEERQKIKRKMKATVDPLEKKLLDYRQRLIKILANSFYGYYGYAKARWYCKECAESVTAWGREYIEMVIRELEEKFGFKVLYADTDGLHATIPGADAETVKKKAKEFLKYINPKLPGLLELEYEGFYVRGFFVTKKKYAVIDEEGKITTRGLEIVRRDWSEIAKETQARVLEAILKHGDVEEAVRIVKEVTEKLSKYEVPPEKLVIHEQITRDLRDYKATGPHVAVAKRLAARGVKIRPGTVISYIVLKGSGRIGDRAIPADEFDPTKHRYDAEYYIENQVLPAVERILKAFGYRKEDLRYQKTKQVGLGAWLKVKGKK

[5] = target: T3, Vent(exo−) DNA polymerase (Thermococcus litoralis, UniProt P30317, D141A/E143A); type: biochemical
T3 sequence (P30317 with tags, fused parts or gaps D141A/E143A): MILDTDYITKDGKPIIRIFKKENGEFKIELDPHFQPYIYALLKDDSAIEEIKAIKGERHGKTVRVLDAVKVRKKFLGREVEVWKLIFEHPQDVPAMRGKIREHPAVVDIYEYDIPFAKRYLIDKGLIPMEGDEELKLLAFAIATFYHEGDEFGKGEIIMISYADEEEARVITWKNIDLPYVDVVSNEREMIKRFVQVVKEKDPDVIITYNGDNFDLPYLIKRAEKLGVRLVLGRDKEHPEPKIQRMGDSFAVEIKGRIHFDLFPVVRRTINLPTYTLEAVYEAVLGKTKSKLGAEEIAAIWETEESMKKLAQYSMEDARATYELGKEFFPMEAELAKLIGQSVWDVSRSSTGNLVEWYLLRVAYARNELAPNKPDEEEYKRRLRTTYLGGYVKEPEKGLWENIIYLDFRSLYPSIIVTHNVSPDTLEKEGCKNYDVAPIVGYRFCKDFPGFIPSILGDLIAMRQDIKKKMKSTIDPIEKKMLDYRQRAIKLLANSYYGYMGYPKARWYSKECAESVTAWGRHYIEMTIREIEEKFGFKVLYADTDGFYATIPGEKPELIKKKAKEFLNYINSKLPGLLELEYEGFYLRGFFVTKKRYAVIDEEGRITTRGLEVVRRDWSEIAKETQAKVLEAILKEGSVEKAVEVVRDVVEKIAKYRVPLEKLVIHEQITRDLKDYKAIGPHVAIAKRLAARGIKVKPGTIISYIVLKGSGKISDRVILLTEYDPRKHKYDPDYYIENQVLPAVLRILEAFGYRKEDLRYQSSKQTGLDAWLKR

[6] = Klenow(exo−), ratio of IC50 values
[7] = Therminator, ratio of IC50 values

Structure (SMILES) | Incorporation bias Cpd IIIc/dATP ([1]; Bst, ratio of IC50 values) | Incorporation bias Cpd IIIc/ddATP ([1]; Bst, ratio of IC50 values) | Incorporation bias Cpd IIIc/dATP [2, 6] | Incorporation bias Cpd IIIc/ddATP [2, 6] | Incorporation bias Cpd IIIc/dATP ([3]; Taq, ratio of IC50 values) | Incorporation bias Cpd IIIc/ddATP ([3]; Taq, ratio of IC50 values) | Incorporation bias Cpd IIIc/dATP [4, 7] | Incorporation bias Cpd IIIc/ddATP [4, 7] | IC50 [5] [nM] | IC50 [1] [nM] | Incorporation bias ddATP/dATP ([1]; Bst, ratio of IC50 values) | IC50 [2] [nM] | Incorporation bias ddATP/dATP [2, 6] | IC50 [3] [nM] | Incorporation bias ddATP/dATP ([3]; Taq, ratio of IC50 values) | IC50 [4] [nM] | Incorporation bias ddATP/dATP [4, 7]
O=[N+]([O-])c1ccccc1CNc1ncnc2c1ncn2[C@H]1C[C@H](O)[C@@H](COP(=O)(O)OP(=O)(O)OP(=O)(O)O)O1 [Compound IIIc, N^6-(2-Nitrobenzyl)-2’-deoxyadenosine-5’-triphosphate] | 18 | 0.057 | 2.7 | 0.15 | 380 | 0.17 | 1.3 | 0.32 | 2.1 ± 0.2 | – | – | – | – | – | – | – | –
Nc1ncnc2c1ncn2[C@H]1CC[C@@H](COP(=O)(O)OP(=O)(O)OP(=O)(O)O)O1 [ddATP, 2′,3′-dideoxyadenosine triphosphate, reference compound] | – | – | – | – | – | – | – | – | 550 ± 40 | 370 ± 30 | 310 | 29 ± 5 | 18 | 12600 ± 900 | 2300 | 9.7 ± 1.1 | 4.2
